{
  "source": "ChEMBL document CHEMBL3227930",
  "about": "“Some 11-substituted tetrahydrocannabinols. Synthesis and comparison with the potent cannabinoid metabolites 11-hydroxytetrahydrocannabinols” (1979)",
  "key": {"Mus musculus [1]": {"tested_on": "Mus musculus", "experiment": "Analgesic activity in mouse at 20 mg/kg, sc by hot-plate method", "assay_type": "functional, organism-based", "design": "dose 20 mg/kg"}, "Canis familiaris [2]": {"tested_on": "Canis familiaris", "experiment": "Induction of overt behavior in dog at 0.10 mg/kg, iv", "assay_type": "functional, organism-based", "design": "dose 0.1 mg/kg", "conditions": "Canis lupus familiaris"}, "Canis familiaris [3]": {"tested_on": "Canis familiaris", "experiment": "Induction of overt behavior in dog at 0.20 mg/kg, iv", "assay_type": "functional, organism-based", "design": "dose 0.2 mg/kg", "conditions": "Canis lupus familiaris"}, "Mus musculus [4]": {"tested_on": "Mus musculus", "experiment": "Analgesic activity in sc dosed mouse by hot-plate method", "assay_type": "functional"}, "Canis familiaris [5]": {"tested_on": "Canis familiaris", "experiment": "Induction of overt behavior in dog at 0.40 mg/kg, iv", "assay_type": "functional, organism-based", "design": "dose 0.4 mg/kg", "conditions": "Canis lupus familiaris"}, "Canis familiaris [6]": {"tested_on": "Canis familiaris", "experiment": "Induction of overt behavior in dog at 2 mg/kg, iv", "assay_type": "functional, organism-based", "design": "dose 2 mg/kg", "conditions": "Canis lupus familiaris"}, "Canis familiaris [7]": {"tested_on": "Canis familiaris", "experiment": "Induction of overt behavior in dog at 1 mg/kg, iv", "assay_type": "functional, organism-based", "design": "dose 1 mg/kg", "conditions": "Canis lupus familiaris"}, "Canis familiaris [8]": {"tested_on": "Canis familiaris", "experiment": "Induction of overt behavior in dog at 0.50 mg/kg, iv", "assay_type": "functional, organism-based", "design": "dose 0.5 mg/kg", "conditions": "Canis lupus familiaris"}, "Canis familiaris [9]": {"tested_on": "Canis familiaris", "experiment": "Induction of overt behavior in dog at 4 mg/kg, iv", "assay_type": "functional, organism-based", "design": "dose 4 mg/kg", "conditions": "Canis lupus familiaris"}, "Canis familiaris [10]": {"tested_on": "Canis familiaris", "experiment": "Induction of overt behavior in dog at 0.05 mg/kg, iv", "assay_type": "functional, organism-based", "design": "dose 0.05 mg/kg", "conditions": "Canis lupus familiaris"}, "Canis familiaris [11]": {"tested_on": "Canis familiaris", "experiment": "Induction of overt behavior in dog at 0.01 mg/kg, iv", "assay_type": "functional, organism-based", "design": "dose 0.01 mg/kg", "conditions": "Canis lupus familiaris"}, "Canis familiaris [12]": {"tested_on": "Canis familiaris", "experiment": "Induction of overt behavior in dog at 0.80 mg/kg, iv", "assay_type": "functional, organism-based", "design": "dose 0.8 mg/kg", "conditions": "Canis lupus familiaris"}, "Canis familiaris [13]": {"tested_on": "Canis familiaris", "experiment": "Induction of overt behavior in dog at 3 mg/kg, iv", "assay_type": "functional, organism-based", "design": "dose 3 mg/kg", "conditions": "Canis lupus familiaris"}, "Mus musculus [14]": {"tested_on": "Mus musculus", "experiment": "Analgesic activity in mouse at 50 mg/kg, sc by hot-plate method", "assay_type": "functional, organism-based", "design": "dose 50 mg/kg"}},
  "note": "The source made the active and inactive calls. The rule behind the calls is not given here.",
  "data": [
    {"smiles": "CCCCCc1cc(O)c2c(c1)OC(C)(C)[C@@H]1CC/C(=N/O)C[C@@H]21", "values": [
      {"measurement": "Activity", "setting": "Mus musculus [1]", "value": "inactive"}
    ]},
    {"smiles": "CCCCCc1cc(O)c2c(c1)OC(C)(C)[C@@H]1CC=C(CNC(C)=O)C[C@@H]21", "values": [
      {"measurement": "Activity", "setting": "Mus musculus [1]", "value": "inactive"}
    ]},
    {"smiles": "CCCCCc1cc(O)c2c(c1)OC(C)(C)[C@@H]1CC=C(C)C[C@@H]21", "note": "[DELTA-8-TETRAHYDROCANNABINOL]", "values": [
      {"measurement": "Activity", "setting": "Canis familiaris [2]", "value": "inactive"},
      {"measurement": "Activity", "setting": "Canis familiaris [3]", "value": "inactive"},
      {"measurement": "ED50", "setting": "Mus musculus [4]", "value": 8.8, "unit": "mg/kg"},
      {"measurement": "Activity", "setting": "Canis familiaris [5]", "value": "Active"}
    ]},
    {"smiles": "CCCCCc1cc(O)c2c(c1)OC(C)(C)[C@@H]1CC=C(CN)C[C@@H]21", "values": [
      {"measurement": "Activity", "setting": "Mus musculus [1]", "value": "inactive"},
      {"measurement": "Activity", "setting": "Canis familiaris [6]", "value": "Active"},
      {"measurement": "Activity", "setting": "Canis familiaris [7]", "value": "inactive"},
      {"measurement": "Activity", "setting": "Canis familiaris [8]", "value": "inactive"}
    ]},
    {"smiles": "COc1ccc2c3c1O[C@H]1[C@@H](O)C=C[C@H]4[C@@H](C2)N(C)CC[C@@]341.Cl", "values": [
      {"measurement": "ED50", "setting": "Mus musculus [4]", "value": 7.5, "unit": "mg/kg"}
    ]},
    {"smiles": "CCCCCc1cc(O)c2c(c1)OC(C)(C)[C@@H]1CC=C(COC)C[C@@H]21", "values": [
      {"measurement": "Activity", "setting": "Canis familiaris [9]", "value": "Active"},
      {"measurement": "Activity", "setting": "Canis familiaris [6]", "value": "Active"},
      {"measurement": "ED50", "setting": "Mus musculus [4]", "value": 8.2, "unit": "mg/kg"}
    ]},
    {"smiles": "CCCCCc1cc(O)c2c(c1)OC(C)(C)[C@@H]1CCC(CO)=C[C@@H]21", "values": [
      {"measurement": "Activity", "setting": "Canis familiaris [2]", "value": "Active"},
      {"measurement": "Activity", "setting": "Canis familiaris [10]", "value": "Active"},
      {"measurement": "ED50", "setting": "Mus musculus [4]", "value": 1.9, "unit": "mg/kg"},
      {"measurement": "Activity", "setting": "Canis familiaris [11]", "value": "Active"}
    ]},
    {"smiles": "CN1CC[C@]23c4c5ccc(O)c4O[C@H]2[C@@H](O)C=C[C@H]3[C@H]1C5.Cl", "note": "[MORPHINE HYDROCHLORIDE]", "values": [
      {"measurement": "ED50", "setting": "Mus musculus [4]", "value": 1.2, "unit": "mg/kg"}
    ]},
    {"smiles": "CCCCCc1cc(O)c2c(c1)OC(C)(C)[C@@H]1CC=C(CC)CC21", "note": "(mixture of isomers)", "values": [
      {"measurement": "Activity", "setting": "Canis familiaris [6]", "value": "Active"},
      {"measurement": "Activity", "setting": "Canis familiaris [7]", "value": "Active"},
      {"measurement": "Activity", "setting": "Canis familiaris [12]", "value": "Active"},
      {"measurement": "Activity", "setting": "Canis familiaris [13]", "value": "Active"},
      {"measurement": "Activity", "setting": "Canis familiaris [3]", "value": "inactive"},
      {"measurement": "Activity", "setting": "Canis familiaris [5]", "value": "inactive"},
      {"measurement": "Activity", "setting": "Mus musculus [14]", "value": "inactive"}
    ]}
  ]
}
